According to patent US11845752B2, “Substituted imidazo[1,5-a]pyrazines for the treatment of hepatitis B” (ALIGOS THERAPEUTICS, INC., priority 2020, dated 2023):
Like-named read-outs stand apart in the source and are kept apart here.

Test system: HBV
Experiment: HBV-DNA antiviral assay using HepG2.117 cells (intracellular HBV DNA by qPCR)
Format: cell-based, HBV genotype D
Settings: HBV DNA inhibition, 3 days incubation
Method: The following assay procedure describes the HBV antiviral assay, using HepG2.117 cells, which carry a stably integrated genotype D HBV genome under the control of a Tet-off promoter, and intracellular HBV DNA quantification as endpoint. Cell viability is assessed in parallel by measuring the intracellular ATP content using ATPlite (Perkin Elmer).
On day 0, HepG2.117 cells (which are maintained in routine cell culture with doxycycline present in the medium at a final concentration of 1 μg/mL) were seeded in 96-well plates (white with clear bottom) at a density of 2.0×10^4 cells/well (0.1 mL/well) in medium without doxycycline to induce pgRNA transcription and subsequent formation of HBV particles. The cells were incubated at 37° C. and 5% CO2.
On day 1, medium was removed from each well, the test articles were diluted in culture medium without doxcycyline and 100 μL was added to cell culture wells (9 concentrations, 4-fold dilution). For each plate, 6 untreated (merely DMSO) wells were included. The final concentration of DMSO in the culture medium was 2%. Each plate was prepared in duplicate (one for HBV DNA extraction, one for ATPlite measurement). The cells were incubated at 37° C. and 5% CO2 for 3 days.
On day 4, cell viability was assessed using ATPlite and cell lysates were prepared for HBV DNA extraction and subsequent quantification by qPCR.
Medium was removed from each well and 100 μL of 0.33% NP-40 in H2O was added to each well. Plates were sealed, incubated at 4° C. for 5 mins, vortexed extensively and centrifuged briefly. Next, 35 μL of lysate was added to 65 μL QuickExtract DNA Extraction Solution (Epicentre) in a PCR plate for each well. PCR plate was incubated at 65° C. for 6 mins, 98° C. for 2 mins and finally cooled to 4° C. HBV DNA was then quantified by qPCR with HBV-specific primers and probes as specified in Table 1 using the Bio-Rad SSOAdvanced Universal Probes Supermix on a CFX96 machine (Bio-Rad). The PCR cycle program consisted of 95° C. for 3 mins, followed by 40 cycles at 95° C. for 10 sec and 60° C. for 30 sec.
A DNA standard was prepared by dilution of an IDT gBlock corresponding to the amplicon with concentrations ranging from 10^2 to 10^8 copies/input (i.e. per 4 μL) and used to generate a standard curve by plotting Cq values vs. HBV DNA standard concentration. The quantity of HBV DNA in each sample was determined by interpolating from the standard curve.
Cell viability was calculated as follows: % Cell viability=(luminescence value of test sample)/(average luminescence value of 2% DMSO control)×100%. HBV DNA inhibition was calculated as follows: 100−(HBV DNA copy number of test sample)/(average HBV DNA copy number of 2% DMSO control)×100%. No normalization to entecavir was required due to the excellent dynamic window of this assay. The CC50, EC50 and EC90 values were determined by dose-response curves fitted using non-linear regression.

[1] = Hepatitis B virus, HepG2.117, 72 h, read-out: EC50

Row | Compound | EC50 [1] [nM] | also measured
1 | CNc1ccnc(-c2ccccc2CNC(=O)c2c3n(c(=O)n2-c2ccc(OC4CC4)cc2)CC(C)N(C(=O)c2ccc(Br)c(C(F)(F)F)c2)C3)n1 (racemic) [Compound 28a, rac-(6R)-7-[4-bromo-3-(trifluoromethyl)benzoyl]-2-[4-(cyclopropoxy)phenyl]-6-methyl-N-[[2-[4-(methylamino)pyrimidin-2-yl]phenyl]methyl]-3-oxo-6,8-dihydro-5H-imidazo[1,5-a]pyrazine-1-carboxamide] | < 50 | 
2 | C[C@@H]1Cn2c(c(C(=O)NCc3c(F)cccc3-c3ccccn3)n(-c3ccc(OC4CC4)cc3)c2=O)CN1C(=O)c1ccc(Br)c(C(F)(F)F)c1 (racemic) [Compound 41a, rac-(6R)-7-[4-bromo-3-(trifluoromethyl)benzoyl]-2-[4-(cyclopropoxy)phenyl]-N-[[2-fluoro-6-(2-pyridyl)phenyl]methyl]-6-methyl-3-oxo-6,8-dihydro-5H-imidazo[1,5-a]pyrazine-1-carboxamide] | < 50 | 
3 | C[C@H]1Cn2c(c(C(=O)NCc3ccccc3-c3ccncn3)n(-c3ccc(OC[C@H](O)C(F)(F)F)cc3)c2=O)CN1C(=O)c1ccc(Br)c(C(F)(F)F)c1 (racemic) [Compound 63b, (6SR)-7-[4-bromo-3-(trifluoromethyl)benzoyl]-6-methyl-3-oxo-N-[(2-pyrimidin-4-ylphenyl)methyl]-2-[4-[(25)-3,3,3-trifluoro-2-hydroxy-propoxy]phenyl]-6,8-dihydro-5H-imidazo[1,5-a]pyrazine-1-carboxamide] | 50 to 500 | 
4 | C[C@H](O)COc1ccc(-n2c(C(=O)NCc3ccccc3-c3ncccn3)c3n(c2=O)C[C@H](C)N(C(=O)c2ccc(Br)c(C(F)(F)F)c2)C3)cc1 (racemic) [Compound 65b, (6SR)-7-[4-bromo-3-(trifluoromethyl)benzoyl]-2-[4-[(25)-2-hydroxypropoxy]phenyl]-6-methyl-3-oxo-N-[(2-pyrimidin-2-ylphenyl)methyl]-6,8-dihydro-5H-imidazo[1,5-a]pyrazine-1-carboxamide] | 50 to 500 | 
5 | C[C@@H]1Cn2c(c(C(=O)NCc3ccccc3-c3ccncn3)n(-c3ccc(OCC4(O)CC4)cc3)c2=O)CN1C(=O)c1ccc(Br)c(C(F)(F)F)c1 (racemic) [Compound 74a, rac-(6R)-7-[4-bromo-3-(trifluoromethyl)benzoyl]-2-[4-[(1-hydroxycyclopropyl)methoxy]phenyl]-6-methyl-3-oxo-N-[(2-pyrimidin-4-ylphenyl)methyl]-6,8-dihydro-SH-imidazo[1,5-a]pyrazine-1-carboxamide] | 50 to 500 | 
6 | C[C@H]1Cn2c(c(C(=O)NCc3ccccc3-c3ncccn3)n(-c3ccc(N4CC5(CN(C)C5)C4)cc3)c2=O)CN1C(=O)c1ccc(Br)c(C(F)(F)F)c1 (racemic) [Compound 78b, rac-(6S)-7-[4-bromo-3-(trifluoromethyl)benzoyl]-6-methyl-2-[4-(6-methyl-2,6-diazaspiro[3.3]heptan-2-yl)phenyl]-3-oxo-N-[(2-pyrimidin-2-ylphenyl)methyl]-6,8-dihydro-SH-imidazo[1,5-a]pyrazine-1-carboxamide] | 50 to 500 | 
7 | CN[C@H](C)COc1ccc(-n2c(C(=O)NCc3ccccc3-c3ncccn3)c3n(c2=O)C[C@H](C)N(C(=O)c2ccc(Br)c(C(F)(F)F)c2)C3)cc1 (racemic) [Compound 95b, rac-(6S)-7-[4-bromo-3-(trifluoromethyl)benzoyl]-6-methyl-2-[4-[2-(methylamino)propoxy]phenyl]-3-oxo-N-[(2-pyrimidin-2-ylphenyl)methyl]-6,8-dihydro-5H-imidazo[1,5-a]pyrazine-1-carboxamide] | 50 to 500 | 
8 | C[C@H](COc1ccc(-n2c(C(=O)NCc3ccccc3-c3ncccn3)c3n(c2=O)C[C@H](C)N(C(=O)c2ccc(Br)c(C(F)(F)F)c2)C3)cc1)N1CCOCC1 (racemic) [Compound 96b, rac-(6S)-7-[4-bromo-3-(trifluoromethyl)benzoyl]-6-methyl-2-[4-(2-morpholinopropoxy)phenyl]-3-oxo-N-[(2-pyrimidin-2-ylphenyl)methyl]-6,8-dihydro-5H-imidazo[1,5-a]pyrazine-1-carboxamide] | < 50 | 
9 | Cc1nnc(-c2ccccc2CNC(=O)c2c3n(c(=O)n2-c2ccc(OC4CC4)cc2)CC(C)N(C(=O)c2ccc(Br)c(Cl)c2)C3)o1 (single isomer, unassigned) [Compound 1a, (S*)-7-(4-bromo-3-chlorobenzoyl)-2-(4-cyclopropoxyphenyl)-6-methyl-N-(2-(5-methyl-1,3,4-oxadiazol-2-yl)benzyl)-3-oxo-2,3,5,6,7,8-hexahydroimidazo[1,5-a]pyrazine-1-carboxamide] | 50 to 500 | 
10 | Cc1nnc(-c2ccccc2CNC(=O)c2c3n(c(=O)n2-c2ccc(OC4CC4)cc2)CC(C)N(C(=O)c2ccc(Br)c(Cl)c2)C3)o1 (single isomer, unassigned) [Compound 1b, (6R*)-7-(4-bromo-3-chlorobenzoyl)-2-(4-cyclopropoxyphenyl)-6-methyl-N-(2-(5-methyl-1,3,4-oxadiazol-2-yl)benzyl)-3-oxo-2,3,5,6,7,8-hexahydroimidazo[1,5-a]pyrazine-1-carboxamide] |  | EC50 (read-out: EC50): < 50 nM
11 | CC1Cn2c(c(C(=O)NCc3c(F)cccc3-c3ccncn3)n(-c3ccc(OC4CC4)cc3)c2=O)CN1C(=O)c1ccc(Br)c(Cl)c1 (single isomer, unassigned) [Compound 2a, (S*)-7-(4-bromo-3-chlorobenzoyl)-2-(4-cyclopropoxyphenyl)-N-(2-fluoro-6-(pyrimidin-4-yl)benzyl)-6-methyl-3-oxo-2,3,5,6,7,8-hexahydroimidazo[1,5-a]pyrazine-1-carboxamide] | 50 to 500 | 
12 | CC1Cn2c(c(C(=O)NCc3c(F)cccc3-c3ccncn3)n(-c3ccc(OC4CC4)cc3)c2=O)CN1C(=O)c1ccc(Br)c(Cl)c1 (single isomer, unassigned) [Compound 2b, (R*)-7-(4-bromo-3-chlorobenzoyl)-2-(4-cyclopropoxyphenyl)-N-(2-fluoro-6-(pyrimidin-4-yl)benzyl)-6-methyl-3-oxo-2,3,5,6,7,8-hexahydroimidazo[1,5-a]pyrazine-1-carboxamide] |  | EC50 (read-out: EC50): < 50 nM
13 | CC1Cn2c(c(C(=O)NCc3ccccc3-c3ncccn3)n(-c3ccc(OC4CC4)cc3)c2=O)CN1C(=O)c1ccc(Br)c(Cl)c1 (single isomer, unassigned) [Compound 3a, (6S*)-7-(4-bromo-3-chloro-benzoyl)-2-[4-(cyclopropoxy)phenyl]-6-methyl-3-oxo-N-[(2-pyrimidin-2-ylphenyl)methyl]-6,8-dihydro-5H-imidazo[1,5-a]pyrazine-1-carboxamide] | < 50 | 
14 | CC1Cn2c(c(C(=O)NCc3ccccc3-c3ncccn3)n(-c3ccc(OC4CC4)cc3)c2=O)CN1C(=O)c1ccc(Br)c(Cl)c1 (single isomer, unassigned) [Compound 3b, (6R*)-7-(4-bromo-3-chloro-benzoyl)-2-[4-(cyclopropoxy)phenyl]-6-methyl-3-oxo-N-[(2-pyrimidin-2-ylphenyl)methyl]-6,8-dihydro-5H-imidazo[1,5-a]pyrazine-1-carboxamide] |  | EC50 (read-out: EC50): 50 to 500 nM
15 | CC1Cn2c(c(C(=O)NCc3ccccc3-c3ccncn3)n(-c3ccc(-n4cccn4)cc3)c2=O)CN1C(=O)c1ccc(Br)c(Cl)c1 (single isomer, unassigned) [Compound 4a, 7-(4-bromo-3-chloro-benzoyl)-6-methyl-3-oxo-2-(4-pyrazol-1-ylphenyl)-N-[(2-pyrimidin-4-ylphenyl)methyl]-6,8-dihydro-5H-imidazo[1,5-a]pyrazine-1-carboxamide] | 50 to 500 | 
16 | CC1Cn2c(c(C(=O)NCc3ccccc3-c3ccncn3)n(-c3ccc(-n4cccn4)cc3)c2=O)CN1C(=O)c1ccc(Br)c(Cl)c1 (single isomer, unassigned) [Compound 4b, 7-(4-bromo-3-chloro-benzoyl)-6-methyl-3-oxo-2-(4-pyrazol-1-ylphenyl)-N-[(2-pyrimidin-4-ylphenyl)methyl]-6,8-dihydro-5H-imidazo[1,5-a]pyrazine-1-carboxamide] |  | EC50 (listed as 4h): < 50 nM
